The structures appear in SMILES notation.

These results are taken from patent US5747506A, “Isoquinoline compounds, compositions containing them and their pharmaceutical uses” (Novartis AG, priority 1993, dated 1998).

One series has as its system human eosinophils. The series can be described thus: TEST B: Inhibition of Eosinophil Activation by fMLP (oxidative burst, chemiluminescence). The series is classed as cell-based. The following applies: fMLP 1 μM, hydrogen-oxalate salt. Here is the method:
TEST B: Inhibition of Eosinophil Activation by formyl-MetLeuPhe (fMLP)
Purified human eosinophils (10^4 /well in 0.2 ml HBSS) are stimulated with fMLP (1 μM) in the presence of lucigenin (25 μM). Inhibition of the oxidative burst (measured as changes in chemiluminescence) is determined from dose response curves using the logistic equation.

The subject of another series is PDE IV. Kind of series: inhibition of PDE IV added to plasma after administration to conscious dogs. The following applies: up to 0.3 mg/kg i.v. or 0.6 mg/kg p.o., hydrogen-oxalate salt. It counts as in vivo.
In a further series the test system is cardiovascular effects. Kind of series: Doppler aortic flow test in the rabbit. The series is classed as in vivo. The following applies: hydrogen-oxalate salt. The text has this:
Thus in a series of experiments using the Doppler aortic flow test in the rabbit [J. Pharmacol. Meth.

For series [1], the system named is TNFα secretion, THP-1 cells. Kind of series: TEST C: Inhibition of TNFα Secretion (THP-1 cells, γ-interferon/LPS). It counts as cell-based. The following applies: Homo sapiens, LPS, γ-interferon, 40 hours, hydrogen-oxalate salt. Here is the method: TEST C: Inhibition of TNFα Secretion
900 μl THP-1 cells (0.5 10^6 cells together with 100 U γ-interferon/0.9 ml) are pipetted into 24 well culture plates and followed by 100 μl test substance. After 3 hours at 37° C. in 5% CO2 /95% air, 10 μl LPS 5 μg/ml is added and the incubation continued for a further 40 hours. Appropriate controls are also included. The media are then removed and clarified by centrifugation at 1000 g for 10 min. 1.0 ml digitonin 0.01% is added to the wells to lyse the cells which are loosened by scraping with a rubber policeman and left at 4° C. for 10 min. Lactate dehydrogenase measurements are then performed immediately and the samples stored at […] until the other determinations can be performed. The assays are: IL-1β (medium), TNF-α (medium), and DNA (lysates). IL-1β, and TNF-α assays are determined using commercially available ELISA kits.
The method of Kapuscinski et al Anal. Biochem. (83, 252-257 (1977) is used to assay DNA. 300 μl samples of cell lysate in 0.01% digitonin are mixed with 750 μl tris-HCl buffer pH 7.0 (containing 13.2 mM Na2 SO4), 300 μl H2 O and 150 μl DAPI (4',6-diamidino-2-phenylindole.2HCl) 2 μg/ml. The fluorescence is then measured at 372 nm (excitation) and 454 nm (emission) using a Perkin Elmer 3000 fluorimeter. The samples are read against a standard curve of calf thymus DNA (0.5 to 10 μg/ml) run at the same time. […]

As for `CCc1cc2cc(OCCO)c(OC)cc2c(-c2cc(OC(C)C)cc(OC(C)C)c2)n1` [Example 1, 1-(3,5-diisopropoxyphenyl)-3-ethyl-6-(2-hydroxyethoxy)-7-methoxy-isoauinoline], the IC50 is 60 ± 30 nM in the series with human eosinophils and approximately 100 nM in series [1]. Also, in the series with PDE IV, the “inhibition of PDE IV added to plasma” value is “substantial and long-lasting inhibition”. Moreover, in the series with cardiovascular effects (of the order of 1 mg/kg), the “heart rate (rabbit)” value is recorded as “only slight decrease in heart rate”. Also, the cardiovascular side effects entry in the series with cardiovascular effects (up to the order of 0.3 mg/kg) is recorded as “no cardiovascular side effects”.

For orientation: IC50 means the concentration at which inhibition is half-maximal.
